Experimental data reported in the NIST ThermoML archive (doi:10.1021/je3009304).
± gives the expanded uncertainty stated by the source.

Details: Liquid

C=C(F)C(F)(F)F [2,3,3,3-tetrafluoro-1-propene]
Details	mass density [kg/m3]
217.44 K, 14681 kPa, isochoric method	1363.7 ± 1.3
218.27 K, 962.6 kPa, isochoric method	1333.8 ± 1.3
219.23 K, 2020.3 kPa, isochoric method	1333.7 ± 1.3
220.22 K, 3106.5 kPa, isochoric method	1333.6 ± 1.3
221.18 K, 4140.3 kPa, isochoric method	1333.5 ± 1.3
221.97 K, 20077 kPa, isochoric method	1363.2 ± 1.3
222.06 K, 5097 kPa, isochoric method	1333.4 ± 1.3
226.65 K, 10087 kPa, isochoric method	1332.9 ± 1.3
226.93 K, 25988 kPa, isochoric method	1362.7 ± 1.3
230.27 K, 29902 kPa, isochoric method	1362.4 ± 1.3
231.25 K, 15017 kPa, isochoric method	1332.4 ± 1.3
231.72 K, 1001.1 kPa, isochoric method	1298.5 ± 1.3
232.84 K, 2093.9 kPa, isochoric method	1298.4 ± 1.3
233.76 K, 2987 kPa, isochoric method	1298.2 ± 1.3
234.77 K, 35121 kPa, isochoric method	1361.9 ± 1.3
234.92 K, 4113.3 kPa, isochoric method	1298.2 ± 1.3
236.02 K, 20027 kPa, isochoric method	1332 ± 1.3
236.13 K, 5205.1 kPa, isochoric method	1298 ± 1.3
240.49 K, 24777 kPa, isochoric method	1331.5 ± 1.3
241.06 K, 10038 kPa, isochoric method	1297.5 ± 1.3
245.59 K, 30165 kPa, isochoric method	1331 ± 1.3
246.22 K, 14993 kPa, isochoric method	1297.1 ± 1.3
250.28 K, 35113 kPa, isochoric method	1330.6 ± 1.3
251.43 K, 19983 kPa, isochoric method	1296.6 ± 1.3
251.62 K, 971.2 kPa, isochoric method	1243.5 ± 1.2
252.83 K, 1949.3 kPa, isochoric method	1243.4 ± 1.2
254.25 K, 3101.8 kPa, isochoric method	1243.3 ± 1.2
254.96 K, 39964 kPa, isochoric method	1330.1 ± 1.3
255.48 K, 4096.7 kPa, isochoric method	1243.2 ± 1.2
256.7 K, 5077.8 kPa, isochoric method	1243.1 ± 1.2
256.72 K, 25008 kPa, isochoric method	1296.1 ± 1.3
261.89 K, 29860 kPa, isochoric method	1295.6 ± 1.3
262.98 K, 10262 kPa, isochoric method	1242.5 ± 1.2
267.49 K, 35084 kPa, isochoric method	1295.1 ± 1.3
269.01 K, 15092 kPa, isochoric method	1242 ± 1.2
269.39 K, 1033.4 kPa, isochoric method	1191.1 ± 1.2
270.88 K, 2044.5 kPa, isochoric method	1190.9 ± 1.2
272.34 K, 3041.1 kPa, isochoric method	1190.8 ± 1.2
272.52 K, 39731 kPa, isochoric method	1294.7 ± 1.3
273.79 K, 4025.5 kPa, isochoric method	1190.7 ± 1.2
275.28 K, 5036.3 kPa, isochoric method	1190.6 ± 1.2
275.31 K, 20033 kPa, isochoric method	1241.4 ± 1.2
282.03 K, 25427 kPa, isochoric method	1240.8 ± 1.2
282.83 K, 10183 kPa, isochoric method	1189.9 ± 1.2
282.95 K, 1036 kPa, isochoric method	1147.5 ± 1.2
284.62 K, 2015.3 kPa, isochoric method	1147.4 ± 1.2
286.31 K, 3030.5 kPa, isochoric method	1147.2 ± 1.2
287.71 K, 29892 kPa, isochoric method	1240.4 ± 1.2
287.89 K, 3962.5 kPa, isochoric method	1147.1 ± 1.2
289.95 K, 15007 kPa, isochoric method	1189.4 ± 1.2
289.99 K, 5188 kPa, isochoric method	1146.9 ± 1.2
294.1 K, 34879 kPa, isochoric method	1239.8 ± 1.2
297.11 K, 19748 kPa, isochoric method	1188.8 ± 1.2
297.15 K, 1034.7 kPa, isochoric method	1097.2 ± 1.2
298.15 K, 2000 kPa, Pycnometric method	1101.34 ± 1
298.15 K, 9991.7 kPa, isochoric method	1146.3 ± 1.2
299.15 K, 2029.1 kPa, isochoric method	1097.1 ± 1.2
300.61 K, 39892 kPa, isochoric method	1239.3 ± 1.2
301.16 K, 3031.3 kPa, isochoric method	1096.9 ± 1.2
303.02 K, 3977.9 kPa, isochoric method	1096.8 ± 1.2
304.9 K, 24929 kPa, isochoric method	1188.2 ± 1.2
305.47 K, 5182.3 kPa, isochoric method	1096.6 ± 1.2
306.32 K, 14776 kPa, isochoric method	1145.7 ± 1.2
312.45 K, 29920 kPa, isochoric method	1187.5 ± 1.2
315.08 K, 9982 kPa, isochoric method	1095.9 ± 1.2
315.09 K, 19876 kPa, isochoric method	1145 ± 1.2
315.95 K, 2247.5 kPa, isochoric method	1032.9 ± 1.2
317.45 K, 2859.3 kPa, isochoric method	1032.8 ± 1.2
320.1 K, 34906 kPa, isochoric method	1187 ± 1.2
320.32 K, 4014.4 kPa, isochoric method	1032.6 ± 1.2
322.67 K, 4967.1 kPa, isochoric method	1032.4 ± 1.2
323.87 K, 24958 kPa, isochoric method	1144.4 ± 1.2
325.07 K, 14981 kPa, isochoric method	1095.2 ± 1.2
325.16 K, 5973.9 kPa, isochoric method	1032.3 ± 1.2
327.9 K, 39962 kPa, isochoric method	1186.4 ± 1.2
332.6 K, 29948 kPa, isochoric method	1143.7 ± 1.2
335.17 K, 2008.9 kPa, isochoric method	935 ± 1.2
335.17 K, 19964 kPa, isochoric method	1094.5 ± 1.2
335.18 K, 10007 kPa, isochoric method	1031.6 ± 1.2
338.63 K, 3007.2 kPa, isochoric method	934.8 ± 1.2
341.49 K, 35032 kPa, isochoric method	1143.1 ± 1.2
342.03 K, 3976.9 kPa, isochoric method	934.7 ± 1.2
345.34 K, 25002 kPa, isochoric method	1093.8 ± 1.2
345.42 K, 4963.5 kPa, isochoric method	934.5 ± 1.2
347.2 K, 14893 kPa, isochoric method	1030.8 ± 1.2
350.33 K, 40033 kPa, isochoric method	1142.5 ± 1.2
353.14 K, 28869 kPa, isochoric method	1093.3 ± 1.2
353.15 K, 7224.7 kPa, isochoric method	934 ± 1.2
353.15 K, 17361 kPa, isochoric method	1030.5 ± 1.2

FC(F)=C(F)C(F)(F)F [hexafluoropropene]
Details	mass density [kg/m3]
208.66 K, 4440.7 kPa, isochoric method	1666.3 ± 1.6
212.77 K, 9785.5 kPa, isochoric method	1665.7 ± 1.6
217.15 K, 15655 kPa, isochoric method	1665.1 ± 1.6
220.5 K, 19878 kPa, isochoric method	1664.7 ± 1.6
220.7 K, 1017.1 kPa, isochoric method	1618 ± 1.6
221.58 K, 1995.2 kPa, isochoric method	1617.9 ± 1.6
222.5 K, 3032.3 kPa, isochoric method	1617.8 ± 1.6
223.26 K, 3878.8 kPa, isochoric method	1617.7 ± 1.6
224.31 K, 5176.5 kPa, isochoric method	1617.5 ± 1.6
224.32 K, 25024 kPa, isochoric method	1664.2 ± 1.6
228.25 K, 29978 kPa, isochoric method	1663.7 ± 1.6
228.76 K, 10104 kPa, isochoric method	1616.9 ± 1.6
232.02 K, 34664 kPa, isochoric method	1663.2 ± 1.6
233.17 K, 15012 kPa, isochoric method	1616.4 ± 1.6
236.26 K, 39771 kPa, isochoric method	1662.7 ± 1.6
237.66 K, 1075 kPa, isochoric method	1560.8 ± 1.6
237.67 K, 20020 kPa, isochoric method	1615.8 ± 1.6
238.62 K, 2000 kPa, isochoric method	1560.7 ± 1.6
239.74 K, 3075.4 kPa, isochoric method	1560.5 ± 1.6
240.8 K, 4091.1 kPa, isochoric method	1560.4 ± 1.6
241.91 K, 5150.8 kPa, isochoric method	1560.2 ± 1.6
241.95 K, 25034 kPa, isochoric method	1615.3 ± 1.6
247.02 K, 10041 kPa, isochoric method	1559.6 ± 1.6
247.52 K, 30945 kPa, isochoric method	1614.6 ± 1.6
251.36 K, 35209 kPa, isochoric method	1614.2 ± 1.6
252.41 K, 1004.8 kPa, isochoric method	1507.5 ± 1.6
252.51 K, 15276 kPa, isochoric method	1559 ± 1.6
253.78 K, 2142.1 kPa, isochoric method	1507.3 ± 1.6
254.97 K, 3117.5 kPa, isochoric method	1507.2 ± 1.6
255.93 K, 40226 kPa, isochoric method	1613.6 ± 1.6
256.1 K, 4061.6 kPa, isochoric method	1507 ± 1.6
257.5 K, 5226.1 kPa, isochoric method	1506.9 ± 1.6
257.54 K, 20028 kPa, isochoric method	1558.4 ± 1.6
262.84 K, 25067 kPa, isochoric method	1557.8 ± 1.6
268.15 K, 30042 kPa, isochoric method	1557.2 ± 1.6
269.46 K, 1140.2 kPa, isochoric method	1444.5 ± 1.6
269.51 K, 15216 kPa, isochoric method	1506 ± 1.6
270.71 K, 2007.3 kPa, isochoric method	1444.3 ± 1.6
272.14 K, 2994.8 kPa, isochoric method	1444.2 ± 1.6
273.5 K, 34978 kPa, isochoric method	1556.7 ± 1.6
273.87 K, 4188.8 kPa, isochoric method	1444 ± 1.6
275.36 K, 5220.9 kPa, isochoric method	1443.8 ± 1.6
275.38 K, 20012 kPa, isochoric method	1505.4 ± 1.6
278.75 K, 39847 kPa, isochoric method	1556.1 ± 1.6
281.62 K, 25020 kPa, isochoric method	1504.3 ± 1.6
282.66 K, 10250 kPa, isochoric method	1443.1 ± 1.6
282.84 K, 1039.3 kPa, isochoric method	1388.2 ± 1.5
284.56 K, 2050.1 kPa, isochoric method	1388.1 ± 1.5
286.25 K, 2995.1 kPa, isochoric method	1387.9 ± 1.5
287.65 K, 30072 kPa, isochoric method	1504.2 ± 1.6
287.98 K, 4010.4 kPa, isochoric method	1387.7 ± 1.5
289.44 K, 14959 kPa, isochoric method	1442.4 ± 1.6
289.66 K, 4997.4 kPa, isochoric method	1387.6 ± 1.5
294.12 K, 35270 kPa, isochoric method	1503.5 ± 1.6
296.97 K, 20036 kPa, isochoric method	1441.7 ± 1.6
297.23 K, 942.2 kPa, isochoric method	1322 ± 1.5
298.15 K, 2000 kPa, Pycnometric method	1326.6 ± 1.3
298.15 K, 10003 kPa, isochoric method	1386.8 ± 1.5
299.3 K, 1958.7 kPa, isochoric method	1321.8 ± 1.5
300.38 K, 40273 kPa, isochoric method	1502.9 ± 1.6
301.47 K, 3021.5 kPa, isochoric method	1321.6 ± 1.5
303.44 K, 3963.5 kPa, isochoric method	1321.4 ± 1.5
304.43 K, 25120 kPa, isochoric method	1441 ± 1.6
305.51 K, 4983.5 kPa, isochoric method	1321.2 ± 1.5
307 K, 15256 kPa, isochoric method	1385.9 ± 1.5
311.59 K, 29972 kPa, isochoric method	1440.3 ± 1.6
315.78 K, 2033.9 kPa, isochoric method	1237.1 ± 1.5
315.78 K, 9999.6 kPa, isochoric method	1320.4 ± 1.5
315.78 K, 20405 kPa, isochoric method	1385.1 ± 1.5
317.54 K, 2708.8 kPa, isochoric method	1237 ± 1.5
319.05 K, 35044 kPa, isochoric method	1439.6 ± 1.6
320.92 K, 3993.8 kPa, isochoric method	1236.7 ± 1.5
323.55 K, 4999.4 kPa, isochoric method	1236.5 ± 1.5
324.09 K, 25251 kPa, isochoric method	1384.4 ± 1.5
326.52 K, 40028 kPa, isochoric method	1438.9 ± 1.6
326.95 K, 15464 kPa, isochoric method	1319.4 ± 1.5
332.97 K, 30410 kPa, isochoric method	1383.6 ± 1.5
335.66 K, 19726 kPa, isochoric method	1318.7 ± 1.5
336.51 K, 9979.8 kPa, isochoric method	1235.5 ± 1.5
340.74 K, 34883 kPa, isochoric method	1382.9 ± 1.5
345.95 K, 24723 kPa, isochoric method	1317.8 ± 1.5
352.67 K, 41719 kPa, isochoric method	1381.9 ± 1.5
353.15 K, 16419 kPa, isochoric method	1234.2 ± 1.5
353.15 K, 28219 kPa, isochoric method	1317.2 ± 1.5
